Source: ChEMBL document CHEMBL1129615, “Synthesis and quantitative structure-activity relationship of 17 beta-(hydrazonomethyl)-5 beta-androstane-3 beta,14 beta-diol derivatives that bind to Na+,K(+)-ATPase receptor” (J Med Chem, 1996)

Tests used:
[1] = target: Sodium/potassium-transporting ATPase; assay: Displacement of [3H]ouabain from dog kidney Na+/K+ ATPase; format: protein-complex assay, Canis lupus familiaris
[2] = Acid dissociation constant was determined; format: ADME

Row | SMILES | -Log IC50 [1] | pKa [2]
1 | CN1CCN=C1N/N=C/[C@H]1CC[C@]2(O)[C@@H]3CC[C@@H]4C[C@@H](O)CC[C@]4(C)[C@H]3CC[C@]12C | 6 | 8.05
2 | C[C@]12CC[C@H](O)C[C@H]1CC[C@@H]1[C@@H]2CC[C@]2(C)[C@@H](/C=N/N=C(\N)S)CC[C@]12O | 4.7 | 0.86
3 | C[C@]12CC[C@H](O)C[C@H]1CC[C@@H]1[C@@H]2CC[C@]2(C)[C@@H](/C=N/N=C(N)N)CC[C@]12O.Cl | 7 | 9.35
4 | C/C(=N\N=C(N)N)[C@H]1CC[C@]2(O)[C@@H]3CC[C@@H]4C[C@@H](O)CC[C@]4(C)[C@H]3CC[C@]12C | 6.7 | 9.49
5 | C[C@]12CC[C@H](O)C[C@H]1CC[C@@H]1[C@@H]2CC[C@]2(C)[C@@H](/C=N/NC3=NCCCN3)CC[C@]12O | 6.6 | 10.4
6 | C/N=C(\C[N+](=O)[O-])N/N=C/[C@H]1CC[C@]2(O)[C@@H]3CC[C@@H]4C[C@@H](O)CC[C@]4(C)[C@H]3CC[C@]12C | 4.5 | 2.37
7 | C[C@]12CC[C@H](O)C[C@H]1CC[C@@H]1[C@@H]2CC[C@]2(C)[C@@H](/C=N/Nc3ccccn3)CC[C@]12O | 5.7 | 6.34
8 | C[C@]12CC[C@H](O)C[C@H]1CC[C@@H]1[C@@H]2CC[C@]2(C)[C@@H](/C=N/NC3=NCCN3)CC[C@]12O | 6.7 | 8.42
9 | C[C@]12CC[C@H](O)C[C@H]1CC[C@@H]1[C@@H]2CC[C@]2(C)[C@@H](/C=N/NC3=NC(=O)CN3)CC[C@]12O | 4.7 | 3.58
10 | C[C@]12CC[C@H](O)C[C@H]1CC[C@@H]1[C@@H]2CC[C@]2(C)[C@@H](/C=N/Nc3ncccn3)CC[C@]12O | 4.6 | 3.44
11 | CSC(=N)N/N=C/[C@H]1CC[C@]2(O)[C@@H]3CC[C@@H]4C[C@@H](O)CC[C@]4(C)[C@H]3CC[C@]12C | 5.7 | 5.76
12 | C[C@]12CC[C@H](O)C[C@H]1CC[C@@H]1[C@@H]2CC[C@]2(C)[C@@H](/C=N/N=C(\N)Nc3ccccc3)CC[C@]12O | 5.2 | 8.62
13 | C[C@]12CC[C@H](O)C[C@H]1CC[C@@H]1[C@@H]2CC[C@]2(C)[C@@H](/C=N/NC(N)=O)CC[C@]12O | 5.1 | 1.78
